The supplement of paper PMC4862054

Legend:
Details in all cases: incubation time: 72 h
CAL-85-1 [1] = experiment: normalised viability (% of control), CellTiter-Blue; higher = more viable cells (100 = DMSO, 0 = benzethonium chloride kill control)
Procedure: (§1)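 DSRT, CellTiter-Blue viability, 72 h incubation. Signal is normalised to DMSO and benzethonium chloride controls. Value is the normalised response at dose 1.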

CAL-51 [2] = experiment: as above
Procedure: as §1

HCC1937 [3] = experiment: as above
Procedure: as §1

MFM-223 [4] = experiment: as above
Procedure: as §1

HDQ-P1 [5] = experiment: as above
Procedure: as §1

MDA-MB-468 [6] = experiment: as above
Procedure: as §1

BT-549 [7] = experiment: as above
Procedure: as §1

MDA-MB-231 [8] = experiment: as above
Procedure: as §1

HCC1599 [9] = experiment: as above
Procedure: as §1

MDA-MB-453 [10] = experiment: as above
Procedure: as §1

MDA-MB-436 [11] = experiment: as above
Procedure: as §1

CAL-148 [12] = experiment: as above
Procedure: as §1

DU-4475 [13] = experiment: as above
Procedure: as §1

BT-474 [14] = experiment: as above
Procedure: as §1

HCC1143 [15] = experiment: as above
Procedure: as §1

SK-BR-3 [16] = experiment: as above
Procedure: as §1

CAL-120 [17] = experiment: as above
Procedure: as §1

Hs578T [18] = experiment: as above
Procedure: as §1

CAL-85-1 [19] = experiment: normalised response (% of control), CellTiter-Glo; higher = more viable cells (100 = DMSO, 0 = benzethonium chloride kill control)
How it was run: (§2)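 Two readouts were taken after 72 h: CellTox Green fluorescence (485/520 nm) first, then CellTiter-Glo luminescence after 10 min at room temperature. Breast cancer cell lines had been seeded as 20 µl suspension into 384-well plates holding compound at 5 concentrations in 10-fold steps across a compound-specific 10,000-fold range. Each value is a normalised signal at a single concentration, with plates scaled to 0.1 % DMSO (100) and a positive kill control (0).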

CAL-51 [20] = experiment: as above
How it was run: as §2

HCC1937 [21] = experiment: as above
How it was run: as §2

MFM-223 [22] = experiment: as above
How it was run: as §2

HDQ-P1 [23] = experiment: as above
How it was run: as §2

MDA-MB-468 [24] = experiment: as above
How it was run: as §2

BT-549 [25] = experiment: as above
How it was run: as §2

MDA-MB-231 [26] = experiment: as above
How it was run: as §2

HCC1599 [27] = experiment: as above
How it was run: as §2

MDA-MB-453 [28] = experiment: as above
How it was run: as §2

MDA-MB-436 [29] = experiment: as above
How it was run: as §2

CAL-148 [30] = experiment: as above
How it was run: as §2

DU-4475 [31] = experiment: as above
How it was run: as §2

BT-474 [32] = experiment: as above
How it was run: as §2

HCC1143 [33] = experiment: as above
How it was run: as §2

SK-BR-3 [34] = experiment: as above
How it was run: as §2

MCF-10A = experiment: as above
How it was run: as §2

CAL-120 [35] = experiment: as above
How it was run: as §2

Hs578T [36] = experiment: as above
How it was run: as §2

| SMILES | normalised viability (CAL-85-1 [1]) [%] | normalised viability (CAL-51 [2]) [%] | normalised viability (HCC1937 [3]) [%] | normalised viability (MFM-223 [4]) [%] | normalised viability (HDQ-P1 [5]) [%] | normalised viability (MDA-MB-468 [6]) [%] | normalised viability (BT-549 [7]) [%] | normalised viability (MDA-MB-231 [8]) [%] | normalised viability (HCC1599 [9]) [%] | normalised viability (MDA-MB-453 [10]) [%] | normalised viability (MDA-MB-436 [11]) [%] | normalised viability (CAL-148 [12]) [%] | normalised viability (DU-4475 [13]) [%] | normalised viability (BT-474 [14]) [%] | normalised viability (HCC1143 [15]) [%] | normalised viability (SK-BR-3 [16]) [%] | normalised viability (CAL-120 [17]) [%] | normalised viability (Hs578T [18]) [%] | normalised response (CAL-85-1 [19]) [%] | normalised response (CAL-51 [20]) [%] | normalised response (HCC1937 [21]) [%] | normalised response (MFM-223 [22]) [%] | normalised response (HDQ-P1 [23]) [%] | normalised response (MDA-MB-468 [24]) [%] | normalised response (BT-549 [25]) [%] | normalised response (MDA-MB-231 [26]) [%] | normalised response (HCC1599 [27]) [%] | normalised response (MDA-MB-453 [28]) [%] | normalised response (MDA-MB-436 [29]) [%] | normalised response (CAL-148 [30]) [%] | normalised response (DU-4475 [31]) [%] | normalised response (BT-474 [32]) [%] | normalised response (HCC1143 [33]) [%] | normalised response (SK-BR-3 [34]) [%] | normalised response (MCF-10A) [%] | normalised response (CAL-120 [35]) [%] | normalised response (Hs578T [36]) [%] |
| --- | --- | --- | --- | --- | --- | --- | --- | --- | --- | --- | --- | --- | --- | --- | --- | --- | --- | --- | --- | --- | --- | --- | --- | --- | --- | --- | --- | --- | --- | --- | --- | --- | --- | --- | --- | --- | --- |
| N#Cc1ccc(COC[C@H]2O[C@@H](n3c(NCc4ccc(Cl)c(Cl)c4)nc4c(N)ncnc43)[C@H](O)[C@@H]2O)cc1 (1 nM) | 98.4 | 111 | 84.1 | 92.5 | 118 | 95.5 | 105 | 102 | 109 | 110 | 110 | 111 | 111 | 116 | 99.9 | 91.4 | 101 | 92.8 | 104 | 78.2 | 103 | 107 | 108 | 107 | 99.8 | 107 | 110 | 112 | 104 | 110 | 99.1 | 109 | 108 | 109 | 112 | 108 | 101 |
| O=C(Nc1cccnc1)N1CCC(Cc2cccc(Oc3ccc(C(F)(F)F)cn3)c2)CC1 [PF-3845] (1 nM) | 89 | 98.4 | 91.6 | 91.9 | 145 | 104 | 111 | 114 | 98.9 | 103 | 99.8 | 106 | 92.1 | 70.3 | 92.8 | 123 | 86.7 | 135 | 101 | 89.8 | 98.4 | 110 | 103 | 97.9 | 107 | 110 | 95.8 | 117 | 105 | 114 | 95.8 | 98.6 | 108 | 113 | 113 | 107 | 106 |
| CO[C@H]1C[C@@H]2CC[C@@H](C)[C@@](O)(O2)C(=O)C(=O)N2CCCC[C@H]2C(=O)O[C@H]([C@H](C)C[C@@H]2CC[C@@H](OP(C)(C)=O)[C@H](OC)C2)CC(=O)[C@H](C)/C=C(\C)[C@@H](O)[C@@H](OC)C(=O)[C@H](C)C[C@H](C)/C=C/C=C/C=C/1C [Ridaforolimus] (0.1 nM) | 82.1 | 97.2 | 108 | 82.2 | 78.4 | 96.8 | 91 | 112 | 104 | 93 | 105 | 99.4 | 100 | 94 | 88 | 81.8 | 84.8 | 97.7 | 101 | 114 | 93.1 | 101 | 94.1 | 96.5 | 91.2 | 99.3 | 96.5 | 96.3 | 98.1 | 104 | 105 | 99.6 | 102 | 105 | 105 | 101 | 97.7 |
| COc1cc2/c(=N/c3ccc(Br)cc3F)nc[nH]c2cc1OCC1CCN(C)CC1 [Vandetanib] (1 nM) | 110 | 97 | 82.5 | 94.8 | 56.1 | 94.9 | 87.6 | 88.2 | 112 | 94.7 | 81.1 | 98.4 | 110 | 107 | 106 | 84 | 124 | 101 | 92.6 | 118 | 102 | 87 | 90.7 | 88.1 | 92.7 | 91.7 | 81.8 | 86 | 86.1 | 83.8 | 94.8 | 85.2 | 96.2 | 68.2 | 89.4 | 88.7 | 93.9 |
| O=P1(N(CCCl)CCCl)NCCCO1 (stereo unspecified) [Cyclophosphamide] (4 nM) | 88.2 | 105 | 82.9 | 85.1 | 107 | 98.9 | 93.2 | 96.9 | 81.6 | 104 | 110 | 119 | 120 | 97 | 96.8 | 101 | 87.3 | 102 | 97.4 | 81.2 | 96.7 | 105 | 97.7 | 102 | 98.5 | 96.9 | 107 | 115 | 94 | 99.6 | 103 | 93.9 | 100 | 110 | 111 | 93.4 | 101 |
| NC(=O)c1ccc(I)c([N+](=O)[O-])c1 [Iniparib] (1 nM) | 86 | 95 | 130 | 103 | 104 | 99.1 | 113 | 98.9 | 87.8 | 94.5 | 108 | 93.2 | 87.6 | 92.8 | 97.1 | 92.1 | 85.1 | 116 | 94.6 | 128 | 93.5 | 84.2 | 92.5 | 94.8 | 108 | 90.9 | 101 | 86.2 | 87.1 | 83.8 | 93.8 | 83.2 | 87.8 | 76.7 | 77.3 | 96.5 | 90.9 |
| COCC1(CO)C(=O)C2CCN1CC2 (stereo unspecified) [Prima-1 Met] (1 nM) | 90.5 | 90.5 | 74.9 | 98.7 | 83 | 108 | 106 | 89.7 | 123 | 93.9 | 104 | 93.2 | 120 | 96.1 | 91.1 | 104 | 86.9 | 114 | 101 | 81.5 | 95.5 | 104 | 108 | 107 | 104 | 101 | 101 | 116 | 102 | 107 | 102 | 102 | 98.8 | 109 | 108 | 97.1 | 99.1 |
| COCC[n+]1c2c(n(Cc3cnccn3)c1C)C(=O)c1ccccc1C2=O [YM155] (1 nM) | 107 | 92.4 | 90.1 | 98.8 | 81.3 | 85.3 | 102 | 83 | 136 | 93.3 | 101 | 105 | 108 | 103 | 114 | 94.5 | 99.2 | 107 | 89.6 | 119 | 89.8 | 86.8 | 109 | 93.6 | 96 | 99.6 | 84.7 | 86.2 | 81.3 | 93.3 | 94.7 | 86.8 | 88.8 | 80.6 | 82.1 | 94.7 | 92.5 |
